Results reported in US20020156236A1, “Binding sites for phosphotyrosine binding domains” (priority 1995, published 2002).
Where a SMILES comes first, the peptide text is derived from it.

Biological target: T1, PTB domain/c-erbB2 binding (GST-PTB domain of SHC; c-erbB2 from SKBR3 lysate) (Homo sapiens, UniProt P29353)
T1 construct: GST-PTB domain fusion proteins were expressed from recombinant baculovirus in sf9 cells; made in house; host or cells: Sf9 cells (recombinant baculovirus) for GST-PTB; c-erbB2 endogenous in SKBR3 cell lysate
T1 sequence (P29353 156-341): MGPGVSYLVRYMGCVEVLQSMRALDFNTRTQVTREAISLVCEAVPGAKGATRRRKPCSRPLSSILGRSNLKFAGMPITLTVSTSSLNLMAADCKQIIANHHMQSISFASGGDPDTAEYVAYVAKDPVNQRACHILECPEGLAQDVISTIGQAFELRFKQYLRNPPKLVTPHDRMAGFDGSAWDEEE
Experiment: biochemical
Conditions: Inhibition (relative inhibition scale of IC50)

Q: For CC(C)C[C@H](NC(=O)[C@H](CC(N)=O)NC(=O)[C@H](C)NC(=O)[C@H](Cc1ccccc1)NC(=O)[C@H](C)NC(=O)[C@@H]1CCCN1C(=O)[C@H](CO)NC(=O)[C@H](Cc1ccccc1)NC(=O)[C@H](C)NC(=O)[C@@H]1CCCN1)C(=O)N[C@@H](Cc1ccc(O)cc1)C(=O)N[C@@H](Cc1ccc(OP(=O)(O)O)cc1)C(=O)N[C@@H](Cc1c[nH]c2ccccc12)C(=O)N[C@@H](CC(=O)O)C(=O)N[C@@H](CCC(N)=O)C(=O)N[C@@H](CC(N)=O)C(=O)N[C@@H](CO)C(=O)N[C@@H](CO)C(=O)N[C@@H](CCC(=O)O)C(=O)N[C@@H](CCC(N)=O)C(=O)NCC(=O)O [PAFSPAFANLY (pY) WDQNSSEQG, PAFSPAFANLY(pY)WDQNSSEQG] (HELM PEPTIDE1{P.A.F.S.P.A.F.A.N.L.Y.[O=C([C@H](Cc1ccc(OP(=O)(O)O)cc1)N[*:1])[*:2]].W.D.Q.N.S.S.E.Q.G}$$$$V2.0), which IC50 is on record?
A: The IC50 was 5 to 50 µM.

Q: Which IC50 does the source give for CC(C)C[C@H](NC(=O)[C@H](CC(N)=O)NC(=O)[C@H](CC(=O)O)NC(=O)[C@H](Cc1ccccc1)NC(=O)[C@H](C)NC(=O)[C@@H]1CCCN1C(=O)[C@H](CO)NC(=O)[C@H](Cc1ccccc1)NC(=O)[C@H](C)NC(=O)[C@@H]1CCCN1)C(=O)N[C@@H](Cc1ccc(O)cc1)C(=O)N[C@@H](Cc1ccc(OP(=O)(O)O)cc1)C(=O)N[C@@H](Cc1c[nH]c2ccccc12)C(=O)N[C@@H](CC(=O)O)C(=O)N[C@@H](CC(N)=O)C(=O)N[C@@H](CC(N)=O)C(=O)N[C@@H](CO)C(=O)N[C@@H](CO)C(=O)N[C@@H](CCC(=O)O)C(=O)N[C@@H](CCC(N)=O)C(=O)NCC(=O)O [PAFSPAFDNLY (pY) WDNNSSEQG, PAFSPAFDNLY(pY)WDNNSSEQG] (HELM PEPTIDE1{P.A.F.S.P.A.F.D.N.L.Y.[O=C([C@H](Cc1ccc(OP(=O)(O)O)cc1)N[*:1])[*:2]].W.D.N.N.S.S.E.Q.G}$$$$V2.0) here?
A: Its IC50 is 0.5 to 5 µM.

Q: With CC(C)C[C@H](NC(=O)[C@H](CC(N)=O)NC(=O)[C@H](CC(=O)O)NC(=O)[C@H](C)NC(=O)[C@H](C)NC(=O)[C@@H]1CCCN1C(=O)[C@H](CO)NC(=O)[C@H](Cc1ccccc1)NC(=O)[C@H](C)NC(=O)[C@@H]1CCCN1)C(=O)N[C@@H](Cc1ccc(O)cc1)C(=O)N[C@@H](Cc1ccc(OP(=O)(O)O)cc1)C(=O)N[C@@H](Cc1c[nH]c2ccccc12)C(=O)N[C@@H](CC(=O)O)C(=O)N[C@@H](CCC(N)=O)C(=O)N[C@@H](CC(N)=O)C(=O)N[C@@H](CO)C(=O)N[C@@H](CO)C(=O)N[C@@H](CCC(=O)O)C(=O)N[C@@H](CCC(N)=O)C(=O)NCC(=O)O [PAFSPAADNLY (pY) WDQNSSEQG, PAFSPAADNLY(pY)WDQNSSEQG] (HELM PEPTIDE1{P.A.F.S.P.A.A.D.N.L.Y.[O=C([C@H](Cc1ccc(OP(=O)(O)O)cc1)N[*:1])[*:2]].W.D.Q.N.S.S.E.Q.G}$$$$V2.0) as the compound, how does the IC50 read?
A: The IC50 was 0.5 to 5 µM.

Q: How did the IC50 turn out when CC(C)C[C@H](NC(=O)[C@H](CC(N)=O)NC(=O)[C@H](CC(=O)O)NC(=O)[C@H](Cc1ccccc1)NC(=O)[C@H](C)NC(=O)[C@@H]1CCCN1C(=O)[C@H](CO)NC(=O)[C@H](Cc1ccccc1)NC(=O)[C@H](C)NC(=O)[C@@H]1CCCN1)C(=O)N[C@@H](Cc1ccc(O)cc1)C(=O)N[C@@H](Cc1ccc(OP(=O)(O)O)cc1)C(=O)N[C@@H](Cc1c[nH]c2ccccc12)C(=O)N[C@@H](CC(=O)O)C(=O)N[C@@H](CC(=O)O)C(=O)N[C@@H](CC(N)=O)C(=O)N[C@@H](CO)C(=O)N[C@@H](CO)C(=O)N[C@@H](CCC(=O)O)C(=O)N[C@@H](CCC(N)=O)C(=O)NCC(=O)O [PAFSPAFDNLY (pY) WDDNSSEQG, PAFSPAFDNLY(pY)WDDNSSEQG] (HELM PEPTIDE1{P.A.F.S.P.A.F.D.N.L.Y.[O=C([C@H](Cc1ccc(OP(=O)(O)O)cc1)N[*:1])[*:2]].W.D.D.N.S.S.E.Q.G}$$$$V2.0) was run?
A: Its IC50 is 0.5 to 5 µM.

Q: For CC(C)C[C@H](NC(=O)[C@H](C)NC(=O)[C@H](CC(=O)O)NC(=O)[C@H](Cc1ccccc1)NC(=O)[C@H](C)NC(=O)[C@@H]1CCCN1C(=O)[C@H](CO)NC(=O)[C@H](Cc1ccccc1)NC(=O)[C@H](C)NC(=O)[C@@H]1CCCN1)C(=O)N[C@@H](Cc1ccc(O)cc1)C(=O)N[C@@H](Cc1ccc(OP(=O)(O)O)cc1)C(=O)N[C@@H](Cc1c[nH]c2ccccc12)C(=O)N[C@@H](CC(=O)O)C(=O)N[C@@H](CCC(N)=O)C(=O)N[C@@H](CC(N)=O)C(=O)N[C@@H](CO)C(=O)N[C@@H](CO)C(=O)N[C@@H](CCC(=O)O)C(=O)N[C@@H](CCC(N)=O)C(=O)NCC(=O)O [PAFSPAFDALY (pY) WDQNSSEQG] (HELM PEPTIDE1{P.A.F.S.P.A.F.D.A.L.Y.[O=C([C@H](Cc1ccc(OP(=O)(O)O)cc1)N[*:1])[*:2]].W.D.Q.N.S.S.E.Q.G}$$$$V2.0), which IC50 is on record?
A: Its IC50 is > 50 µM.

Q: CC(C)C[C@H](NC(=O)[C@H](CC(N)=O)NC(=O)[C@H](CC(=O)O)NC(=O)[C@H](Cc1ccccc1)NC(=O)[C@H](C)NC(=O)[C@@H]1CCCN1C(=O)[C@H](CO)NC(=O)[C@H](Cc1ccccc1)NC(=O)[C@H](C)NC(=O)[C@@H]1CCCN1)C(=O)N[C@@H](C)C(=O)N[C@@H](Cc1ccc(O)cc1)C(=O)N[C@@H](Cc1ccc(OP(=O)(O)O)cc1)C(=O)N[C@@H](Cc1c[nH]c2ccccc12)C(=O)N[C@@H](CC(=O)O)C(=O)N[C@@H](CCC(N)=O)C(=O)N[C@@H](CC(N)=O)C(=O)N[C@@H](CO)C(=O)N[C@@H](CO)C(=O)N[C@@H](CCC(=O)O)C(=O)N[C@@H](CCC(N)=O)C(=O)NCC(=O)O [PAFSPAFDNLAY (pY) WDQNSSEQG] (HELM PEPTIDE1{P.A.F.S.P.A.F.D.N.L.A.Y.[O=C([C@H](Cc1ccc(OP(=O)(O)O)cc1)N[*:1])[*:2]].W.D.Q.N.S.S.E.Q.G}$$$$V2.0) was tested. Which IC50 did it give?
A: The IC50 was 0.5 to 5 µM.

Q: Which IC50 does the source give for CC(C)C[C@H](NC(=O)[C@H](CC(N)=O)NC(=O)[C@H](CC(=O)O)NC(=O)[C@H](Cc1ccccc1)NC(=O)[C@H](C)NC(=O)[C@@H]1CCCN1C(=O)[C@H](CO)NC(=O)[C@H](Cc1ccccc1)NC(=O)[C@H](C)NC(=O)[C@@H]1CCCN1)C(=O)N[C@@H](Cc1ccc(O)cc1)C(=O)N[C@@H](Cc1ccc(OP(=O)(O)O)cc1)C(=O)N[C@@H](Cc1c[nH]c2ccccc12)C(=O)N[C@@H](CC(=O)O)C(=O)N[C@@H](CCC(N)=O)C(=O)N[C@@H](CC(N)=O)C(=O)N[C@@H](C)C(=O)N[C@@H](CO)C(=O)N[C@@H](CCC(=O)O)C(=O)N[C@@H](CCC(N)=O)C(=O)NCC(=O)O [PAFSPAFDNLY (pY) WDQNASEQG, PAFSPAFDNLY(pY)WDQNASEQG] (HELM PEPTIDE1{P.A.F.S.P.A.F.D.N.L.Y.[O=C([C@H](Cc1ccc(OP(=O)(O)O)cc1)N[*:1])[*:2]].W.D.Q.N.A.S.E.Q.G}$$$$V2.0) here?
A: The IC50 was 0.5 to 5 µM.

Q: Which IC50 does the source give for CC(C)C[C@H](NC(=O)[C@H](CC(N)=O)NC(=O)[C@H](CO)NC(=O)[C@H](Cc1ccccc1)NC(=O)[C@H](C)NC(=O)[C@@H]1CCCN1C(=O)[C@H](CO)NC(=O)[C@H](Cc1ccccc1)NC(=O)[C@H](C)NC(=O)[C@@H]1CCCN1)C(=O)N[C@@H](Cc1ccc(O)cc1)C(=O)N[C@@H](Cc1ccc(OP(=O)(O)O)cc1)C(=O)N[C@@H](Cc1c[nH]c2ccccc12)C(=O)N[C@@H](CC(=O)O)C(=O)N[C@@H](CCC(N)=O)C(=O)N[C@@H](CC(N)=O)C(=O)N[C@@H](CO)C(=O)N[C@@H](CO)C(=O)N[C@@H](CCC(=O)O)C(=O)N[C@@H](CCC(N)=O)C(=O)NCC(=O)O [PAFSPAFSNLY (pY) WDQNSSEQG, PAFSPAFSNLY(pY)WDQNSSEQG] (HELM PEPTIDE1{P.A.F.S.P.A.F.S.N.L.Y.[O=C([C@H](Cc1ccc(OP(=O)(O)O)cc1)N[*:1])[*:2]].W.D.Q.N.S.S.E.Q.G}$$$$V2.0) here?
A: Its IC50 is 5 to 50 µM.

Q: With CC(C)C[C@H](NC(=O)[C@H](CC(N)=O)NC(=O)[C@H](CC(=O)O)NC(=O)[C@H](Cc1ccccc1)NC(=O)[C@H](C)NC(=O)[C@@H]1CCCN1C(=O)[C@H](CO)NC(=O)[C@H](Cc1ccccc1)NC(=O)[C@H](C)NC(=O)[C@@H]1CCCN1)C(=O)N[C@@H](Cc1ccc(O)cc1)C(=O)N[C@@H](Cc1ccc(OP(=O)(O)O)cc1)C(=O)N[C@@H](C)C(=O)N[C@@H](CC(=O)O)C(=O)N[C@@H](CCC(N)=O)C(=O)N[C@@H](CC(N)=O)C(=O)N[C@@H](CO)C(=O)N[C@@H](CO)C(=O)N[C@@H](CCC(=O)O)C(=O)N[C@@H](CCC(N)=O)C(=O)NCC(=O)O [PAFSPAFDNLY (pY) ADQNSSEQG] (HELM PEPTIDE1{P.A.F.S.P.A.F.D.N.L.Y.[O=C([C@H](Cc1ccc(OP(=O)(O)O)cc1)N[*:1])[*:2]].A.D.Q.N.S.S.E.Q.G}$$$$V2.0) as the compound, how does the IC50 read?
A: The IC50 was > 50 µM.

Q: For CC(C)C[C@H](NC(=O)[C@H](CC(=O)O)NC(=O)[C@H](CC(=O)O)NC(=O)[C@H](Cc1ccccc1)NC(=O)[C@H](C)NC(=O)[C@@H]1CCCN1C(=O)[C@H](CO)NC(=O)[C@H](Cc1ccccc1)NC(=O)[C@H](C)NC(=O)[C@@H]1CCCN1)C(=O)N[C@@H](Cc1ccc(O)cc1)C(=O)N[C@@H](Cc1ccc(OP(=O)(O)O)cc1)C(=O)N[C@@H](Cc1c[nH]c2ccccc12)C(=O)N[C@@H](CC(=O)O)C(=O)N[C@@H](CCC(N)=O)C(=O)N[C@@H](CC(N)=O)C(=O)N[C@@H](CO)C(=O)N[C@@H](CO)C(=O)N[C@@H](CCC(=O)O)C(=O)N[C@@H](CCC(N)=O)C(=O)NCC(=O)O [PAFSPAFDDLY (pY) WDQNSSEQG] (HELM PEPTIDE1{P.A.F.S.P.A.F.D.D.L.Y.[O=C([C@H](Cc1ccc(OP(=O)(O)O)cc1)N[*:1])[*:2]].W.D.Q.N.S.S.E.Q.G}$$$$V2.0), which IC50 is on record?
A: Its IC50 is > 50 µM.

Q: For C[C@H](NC(=O)[C@@H]1CCCN1)C(=O)N[C@@H](Cc1ccccc1)C(=O)N[C@@H](CO)C(=O)N1CCC[C@H]1C(=O)N[C@@H](C)C(=O)N[C@@H](Cc1ccccc1)C(=O)N[C@@H](CC(=O)O)C(=O)N[C@@H](CC(N)=O)C(=O)N[C@@H](C)C(=O)N[C@@H](Cc1ccc(O)cc1)C(=O)N[C@@H](Cc1ccc(OP(=O)(O)O)cc1)C(=O)N[C@@H](Cc1c[nH]c2ccccc12)C(=O)N[C@@H](CC(=O)O)C(=O)N[C@@H](CCC(N)=O)C(=O)N[C@@H](CC(N)=O)C(=O)N[C@@H](CO)C(=O)N[C@@H](CO)C(=O)N[C@@H](CCC(=O)O)C(=O)N[C@@H](CCC(N)=O)C(=O)NCC(=O)O [PAFSPAFDNAY (pY) WDQNSSEQG, PAFSPAFDNAY(pY)WDQNSSEQG] (HELM PEPTIDE1{P.A.F.S.P.A.F.D.N.A.Y.[O=C([C@H](Cc1ccc(OP(=O)(O)O)cc1)N[*:1])[*:2]].W.D.Q.N.S.S.E.Q.G}$$$$V2.0), which IC50 is on record?
A: Its IC50 is 0.5 to 5 µM.
